Results from patent US8435762B2, “Chimeric ligand-gated ion channels and methods of use thereof” (Howard Hughes Medical Institute, priority 2008, dated 2013).
Entries after “also recorded” stand apart in the source; their conditions may differ. Where a name gives a salt, the structure may show the parent alone. Read-outs that look alike come from different tables or passages of the source.

Experiments:
[1] = target: T1, α7-5HT3 wt chimeric receptor (Homo sapiens, UniProt P36544, M226I/T225I); experiment: fluorescence membrane potential (MP) assay, HEK 293 cells; assay type: cell-based, human/mouse; conditions: for activity against α7-5HT3 wt (unmodified) receptor: dose response curves, MP assay; for EC50: read-out: EC50-MP, α7 wt, IPD 5HT3, value (s.e.m.)
T1 construct: expressed in transfected cells; host or cells: HEK 293 cells
T1 sequence (P36544 with tags, fused parts or gaps T225I/M226I): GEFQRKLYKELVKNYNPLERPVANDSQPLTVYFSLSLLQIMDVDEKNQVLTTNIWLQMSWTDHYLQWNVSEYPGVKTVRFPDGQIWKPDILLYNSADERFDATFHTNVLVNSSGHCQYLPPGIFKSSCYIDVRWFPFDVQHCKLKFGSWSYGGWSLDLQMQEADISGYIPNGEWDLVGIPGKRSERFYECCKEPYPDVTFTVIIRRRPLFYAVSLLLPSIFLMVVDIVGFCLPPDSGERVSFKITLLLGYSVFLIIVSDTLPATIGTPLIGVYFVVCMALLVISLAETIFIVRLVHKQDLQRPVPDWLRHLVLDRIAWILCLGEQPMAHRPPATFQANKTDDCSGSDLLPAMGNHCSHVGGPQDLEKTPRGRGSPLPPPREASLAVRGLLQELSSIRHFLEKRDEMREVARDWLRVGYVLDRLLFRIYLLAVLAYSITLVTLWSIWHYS

[2] = target: T2, α7-5HT3 L141F (Homo sapiens, UniProt P36544, L141F/M226I/T225I); experiment: as above; assay type: cell-based, human/mouse; conditions: for EC50: read-out: EC50-MP, α7 L141F, IPD 5HT3, value (s.e.m.)
T2 construct: expressed in transfected cells; host or cells: HEK 293 cells (ATCC CRL-1573)
T2 sequence (P36544 with tags, fused parts or gaps L141F/T225I/M226I): as the sequence (P36544 with tags, fused parts or gaps T225I/M226I) above, with L119F counted along it

[3] = target: T3, α7-5HT3 W77F (Homo sapiens, UniProt P36544, M226I/T225I/W77F); experiment: whole cell voltage clamp recordings (Iss, Ipeak); assay type: cell-based, human/mouse
T3 construct: expressed in transfected cells; host or cells: HEK 293 cells (ATCC CRL-1573)
T3 sequence (P36544 with tags, fused parts or gaps W77F/T225I/M226I): as the sequence (P36544 with tags, fused parts or gaps T225I/M226I) above, with W55F counted along it

[4] = target: T3, α7-5HT3 W77F; experiment: fluorescence membrane potential (MP) assay, HEK 293 cells; assay type: cell-based, human/mouse
[5] = target: T4, α7-5HT3 Q79G Q139M (Homo sapiens, UniProt P36544, M226I/Q139M/Q79G/T225I); experiment: as above; assay type: cell-based, human/mouse
T4 construct: expressed in transfected cells
T4 sequence (P36544 with tags, fused parts or gaps Q79G/Q139M/T225I/M226I): as the sequence (P36544 with tags, fused parts or gaps T225I/M226I) above, with Q57G, Q117M counted along it

[6] = system: untransfected neurons; experiment: rheobase of untransfected cortical neurons; assay type: cell-based; conditions: even at 30 μM
Excerpt: (§1) FIG. 8. Chimeric α7-GlyR ligand-gated ion channel conducts chloride and greatly reduces excitability of cortical neurons in the presence of the cognate ligand. A. Current trace from voltage clamp recordings in transfected HEK 293 cells showing sustained responses of α7-GlyR and α7-GABA C mutant chimeric receptors to activation by synthetic ligands of the invention. Black line indicates time course of ligand application. […] C. Rheobase, which is the amount of current required to elicit an action potential, is not affected by expression of α7-GlyR L141F Y115F (labeled as condition: PRE). However, rheobase increases 10-fold in the presence of 10 μM compound 89S. There is no change in rheobase in untransfected neurons, even in the presence of 30 μM compound 89S. This reduction of excitability in α7-GlyR L141F Y115F expressing neurons is reversed after washout of the synthetic ligand (labeled as condition: WASH).
(§2) This was measured by the amount of current required to evoke and action potential, also termed rheobase (FIG. 8C). We found no difference in the rheobase of α7-GlyR L141F Y115F expressing neurons and untransfected cells.

[7] = target: T5, α7-GlyR L141F (Homo sapiens, UniProt P36544, L141F); experiment: whole cell voltage clamp recordings (Iss, Ipeak); assay type: cell-based; conditions: IPD GlyR
T5 construct: expressed in transfected cells; host or cells: HEK 293 cells (A15); cortical neurons transduced with AAV, synapsin promoter (A22)
T5 sequence (P36544 with tags, fused parts or gaps L141F): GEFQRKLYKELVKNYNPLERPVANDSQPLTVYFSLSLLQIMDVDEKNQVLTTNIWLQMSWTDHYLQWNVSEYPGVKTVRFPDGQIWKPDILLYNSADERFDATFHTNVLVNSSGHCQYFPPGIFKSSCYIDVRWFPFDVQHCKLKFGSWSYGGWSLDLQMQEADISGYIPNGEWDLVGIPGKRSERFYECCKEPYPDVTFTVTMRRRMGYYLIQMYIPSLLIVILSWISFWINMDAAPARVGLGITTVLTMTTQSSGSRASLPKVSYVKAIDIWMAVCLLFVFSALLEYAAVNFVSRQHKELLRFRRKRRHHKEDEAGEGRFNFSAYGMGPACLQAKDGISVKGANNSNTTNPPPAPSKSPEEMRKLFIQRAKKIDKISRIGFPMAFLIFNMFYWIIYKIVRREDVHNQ

[8] = target: T2, α7-5HT3 L141F; experiment: whole cell voltage clamp recordings (Iss, Ipeak); assay type: cell-based, human/mouse
[9] = target: T6, α7-GlyR L141F Y115F (Homo sapiens, UniProt P36544, L141F/Y115F); experiment: whole cell voltage clamp recordings (Iss, Ipeak); assay type: cell-based; conditions: IPD GlyR
T6 construct: expressed in transfected cells; layer 2/3 cortical neurons (A20)
T6 sequence (P36544 with tags, fused parts or gaps Y115F/L141F): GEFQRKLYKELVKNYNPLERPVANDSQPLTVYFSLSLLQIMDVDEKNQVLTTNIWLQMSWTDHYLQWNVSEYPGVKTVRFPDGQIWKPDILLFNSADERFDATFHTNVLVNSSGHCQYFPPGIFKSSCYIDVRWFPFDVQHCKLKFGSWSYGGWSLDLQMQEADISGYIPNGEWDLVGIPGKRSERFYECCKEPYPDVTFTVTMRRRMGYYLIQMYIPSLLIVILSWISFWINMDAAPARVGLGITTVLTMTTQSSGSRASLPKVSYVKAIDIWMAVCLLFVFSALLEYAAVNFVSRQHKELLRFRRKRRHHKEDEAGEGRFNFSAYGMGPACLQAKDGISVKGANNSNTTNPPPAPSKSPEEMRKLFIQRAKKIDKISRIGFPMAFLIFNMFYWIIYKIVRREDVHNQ

[10] = system: non-transduced neurons; experiment: excitability of non-transduced cortical neurons; assay type: cell-based; conditions: even at 30 μM
Procedure: (§3) FIG. 9. Synthetic ligand-induced silencing of a cortical neuron transduced by viral gene delivery α7-GlyR L141F mutant chimeric ligand-gated ion channels. Cortical neurons were transduced with adeno-associated virus (AAV) encoding the α7-GlyR L141F mutant chimeric ligand-gated ion channel under the control of the neuron-specific synapsin promoter. A. Excitability of a transfected cortical neuron before, during, and after administration of compound 89S (10 μM). […] The neuron fires normally with <100 pA injected current before and after the compound administration. B. Excitability of a non-transduced neuron is shown for comparison. Non-transduced neurons are not affected by administration of compound 89S, even at a higher concentration (30 μM).
(§4) The synapsin promoter, which restricts gene expression to neuronal cell types, was used to drive expression of α7-GlyR L141F in an adeno-associated virus (AAV) gene delivery vector.

[11] = target: T7, α7-GlyR L141F Y115F expressed in layer ⅔ cortical neurons (Homo sapiens, UniProt P36544, L141F/Y115F); experiment: rheobase of layer ⅔ cortical neurons; assay type: cell-based
T7 construct: expressed in transfected cells; layer 2/3 cortical neurons (A20)
T7 sequence (P36544 with tags, fused parts or gaps Y115F/L141F): as above
Excerpt: as §1, §2

[12] = target: T8, α7-GABA C L141F (Homo sapiens, UniProt P36544, L141F); experiment: whole cell voltage clamp recordings (Iss, Ipeak); assay type: cell-based; conditions: IPD GABAC
T8 construct: expressed in transfected cells; host or cells: HEK 293 cells
T8 sequence (P36544 with tags, fused parts or gaps L141F): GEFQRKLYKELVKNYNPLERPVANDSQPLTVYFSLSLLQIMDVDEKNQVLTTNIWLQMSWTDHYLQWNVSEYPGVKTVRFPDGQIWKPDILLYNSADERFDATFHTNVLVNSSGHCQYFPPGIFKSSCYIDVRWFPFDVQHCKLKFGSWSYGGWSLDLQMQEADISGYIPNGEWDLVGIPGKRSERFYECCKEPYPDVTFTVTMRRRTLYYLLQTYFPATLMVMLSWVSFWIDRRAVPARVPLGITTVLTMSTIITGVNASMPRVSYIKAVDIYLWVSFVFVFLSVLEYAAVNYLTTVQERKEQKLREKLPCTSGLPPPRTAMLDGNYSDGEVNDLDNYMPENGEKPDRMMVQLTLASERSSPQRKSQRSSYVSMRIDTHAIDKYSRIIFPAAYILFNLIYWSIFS

[13] = target: T9, α7-GlyR L141F in cortical neurons (AAV, synapsin promoter) (Homo sapiens, UniProt P36544, L141F); experiment: excitability of AAV-transduced cortical neurons; assay type: cell-based; conditions: 10 μM; current injection up to 500 pA
T9 construct: expressed in transfected cells; host or cells: HEK 293 cells (A15); cortical neurons transduced with AAV, synapsin promoter (A22)
T9 sequence (P36544 with tags, fused parts or gaps L141F): as the sequence (P36544 with tags, fused parts or gaps Y115F/L141F) above, with F93Y counted along it
Procedure: as §3, §4

[14] = target: T10, α7-5HT3 HC L141F expressed in layer ⅔ cortical neurons (Homo sapiens, UniProt P36544, L141F/M226I/T225I); experiment: cell attached recording of firing in layer ⅔ cortical neurons; assay type: cell-based, mouse; conditions: 3 μM
T10 construct: expressed in transfected cells; host or cells: HEK 293 cells (A14); mouse layer 2/3 cortical neurons (A19)
T10 sequence (P36544 with tags, fused parts or gaps L141F/T225I/M226I): as the sequence (P36544 with tags, fused parts or gaps T225I/M226I) above, with L119F, R403Q, R407D, R411A counted along it
Excerpt: FIG. 7. High conductance chimeric cationic ligand-gated ion channel activates layer ⅔ cortical neurons. A. Current trace from voltage clamp recordings in HEK 293 cells transfected with high conductance (HC) α7-5HT3 L141F receptors showing sustained response of the receptor to compound 89S. B. Cell attached extracellular recording of action currents from mouse layer ⅔ cortical neurons transfected with HC α7-5HT3 L141F. In addition to the mutation in the ligand binding domain (e.g., L141F), these receptors contain high conductance inducing mutations in the α7-5HT3 sequence: R425Q R429D R433A in SEQ ID NO: 1.
To develop a neuron activating cation channel, we further modified the α7-5HT3 channel with three previously described mutations that were reported to provide a 100-fold increase in conductance: R425Q R429D R433A.

[15] = target: T11, α7-5HT3 HC L141F (R425Q R429D R433A) (Homo sapiens, UniProt P36544, L141F/M226I/T225I); experiment: whole cell voltage clamp recordings (Iss, Ipeak); assay type: cell-based, human/mouse
T11 construct: expressed in transfected cells; host or cells: HEK 293 cells (A14); mouse layer 2/3 cortical neurons (A19)
T11 sequence (P36544 with tags, fused parts or gaps L141F/T225I/M226I): as the sequence (P36544 with tags, fused parts or gaps T225I/M226I) above, with L119F, R403Q, R407D, R411A counted along it

[16] = target: T12, α7-5HT3 Q79G (Homo sapiens, UniProt P36544, M226I/Q79G/T225I); experiment: fluorescence membrane potential (MP) assay, HEK 293 cells; assay type: cell-based, human/mouse; conditions: read-out: EC50-MP; α7 Q79G, IPD 5HT3; value (s.e.m.)
T12 construct: expressed in transfected cells; host or cells: HEK 293 cells (ATCC CRL-1573)
T12 sequence (P36544 with tags, fused parts or gaps Q79G/T225I/M226I): as the sequence (P36544 with tags, fused parts or gaps T225I/M226I) above, with Q57G counted along it

[17] = target: T12, α7-5HT3 Q79G; experiment: whole cell voltage clamp recordings (Iss, Ipeak); assay type: cell-based, human/mouse
[18] = target: T13, α7-5HT3 Y115F (Homo sapiens, UniProt P36544, M226I/T225I/Y115F); experiment: efficacy on ACh-insensitive mutant; assay type: cell-based, human/mouse
T13 construct: expressed in transfected cells; host or cells: not restated
T13 sequence (P36544 with tags, fused parts or gaps Y115F/T225I/M226I): as the sequence (P36544 with tags, fused parts or gaps T225I/M226I) above, with Y93F counted along it

[19] = target: T1, α7-5HT3 wt chimeric receptor; experiment: whole cell voltage clamp recordings (Iss, Ipeak); assay type: cell-based, human/mouse
[20] = target: T14, α7-5HT3 Y210F (Homo sapiens, UniProt P36544, M226I/T225I/Y210F); experiment: efficacy on ACh-insensitive mutant; assay type: cell-based, human/mouse
T14 construct: expressed in transfected cells; host or cells: not restated
T14 sequence (P36544 with tags, fused parts or gaps Y210F/T225I/M226I): as the sequence (P36544 with tags, fused parts or gaps T225I/M226I) above, with Y188F counted along it

[21] = read-out: EC50-Ipeak, peak current, IPD 5HT3
[22] = read-out: EC50-Iss, steady state current, IPD 5HT3
[23] = EC50-Ipeak, peak current, *complex: multiphasic dose response

For `COc1ccccc1C(=O)N[C@@H]1CN2CCC1CC2` [Compound 19S, (S)-2-methoxy-N-(quinuclidin-3-yl)benzamide], the “activity against α7-5HT3 wt (unmodified) receptor” value (shortened to “activity against α7-5HT3 wt”) [1] was “did not induce activate” and the EC50 [2] was 1400 nM.
For `O=C(N[C@@H]1CN2CCC1CC2)c1ccc(-c2ccccc2)cc1` [Compound 28S, (S)—N-(quinuclidin-3-yl)biphenyl-4-carboxamide TFA], the “activity against α7-5HT3 wt” value [1] was “did not induce activate”, the EC50 [3, 21] was 11300 nM and the EC50 [3, 22] was 2400 nM.
In the case of `O=C(N[C@@H]1CN2CCC1CC2)c1ccc(-c2cccs2)cc1` [Compound 34S, (S)—N-(quinuclidin-3-yl)-4-(thiophen-2-yl)benzamide], the “activity against α7-5HT3 wt” value [1] is reported as “did not induce activate” and the EC50 ([4]; α7 W77F, IPD 5HT3; value (s.e.m.); read-out: EC50-MP) is reported as 1400 nM.
For `CS(=O)(=O)c1ccc(C(=O)N[C@H]2CN3CCC2CC3)cc1` [Compound 38R, (R)-4-(methylsulfonyl)-N-(quinuclidin-3-yl)benzamide TFA], the “fold improvement in potency (EC50), α7-5HT3 Q79G Q139M relative to α7-5HT3 Q79G” value ([5]; EC50MP) was 8 fold, the EC50 ([5]; read-out: EC50-MP, α7 Q79G Q139M, IPD 5HT3, value (s.e.m.)) was 230 ± 70 nM and the “activity against α7-5HT3 wt” value ([1]; TFA) was “no activity; also recorded: did not induce activate”.
`COc1ccc(C(=O)N[C@@H]2CN3CCC2CC3)c(OC)c1` [Compound 88S, (S)-2,4-dimethoxy-N-(quinuclidin-3-yl)benzamide] was tested, and the “activity against α7-5HT3 wt” value [1] was “no activity” and the EC50 [2] was 100 ± 100 nM.
With `COc1ccc(OC)c(C(=O)N[C@@H]2CN3CCC2CC3)c1` [Compound 89S, (S)-2,5-dimethoxy-N-(quinuclidin-3-yl)benzamide] the “change in rheobase in untransfected neurons” value [6] was “no change”, the EC50 ([7]; EC50-Iss, steady state current) was 1800 nM and the EC50-Ipeak ([7]; peak current, *complex: multiphasic dose response) was “*complex”. For the same compound, the EC50 [8, 21] was 3200 nM, the EC50 [8, 22] was 700 nM and the EC50 ([9]; EC50-Ipeak, peak current) was 6900 nM. The EC50 ([9]; EC50-Iss, steady state current) was 5200 nM, the “activity against α7-5HT3 wt” value [1] was “no activity” and the “excitability of non-transduced neurons” value [10] was “unaffected; also recorded: not affected”. For the same compound, the increase of rheobase ([11]; 10 μM) was 10 fold, the “reversibility of the effect on neuronal excitability after washout” value ([11]; washed away with drug-free buffer) was “rapidly reversible; also recorded: reversed” and the EC50 ([12]; EC50-Ipeak, peak current) was 8800 nM. For the same compound, the EC50 ([12]; EC50-Iss, steady state current) was 4900 nM, the “selectivity for L141F relative to other mutant receptors” value ([2]; FIG. 5 dose response curves) was “selective” and the EC50 [2] was 400 ± 100 nM. For the same compound, the “excitability (silencing) of transduced neurons” value [13] was “rendered sensitive to silencing; also recorded: poorly excitable”, the “firing rate of neurons” value [14] was “sustainably increased” and the EC50 ([15]; read-out: EC50-Ipeak, peak current, IPD 5HT3 HC) was 2300 nM. It also gave an EC50 ([15]; read-out: EC50-Iss, steady state current, IPD 5HT3 HC) of 1500 nM.
`COc1ccc(Cl)cc1C(=O)N[C@@H]1CN2CCC1CC2` [Compound 118S, (S)-5-chloro-2-methoxy-N-(quinuclidin-3-yl)benzamide TFA] was tested, and the EC50 [7, 23] was 3200 nM and the EC50 ([7]; EC50-Iss, steady state current) was 3000 nM.
Work on `COc1ccc(F)cc1C(=O)N[C@@H]1CN2CCC1CC2` [Compound 119S, (S)-5-fluoro-2-methoxy-N-(quinuclidin-3-yl)benzamide TFA] yielded an EC50 [7, 23] of 3800 nM and an EC50 ([7]; EC50-Iss, steady state current) of 2500 nM.
`O=C(N[C@@H]1CN2CCC1CC2)c1ccc(-c2ccc(F)cc2)cc1` [Compound 132S, (S)-4′-fluoro-N-(quinuclidin-3-yl)biphenyl-4-carboxamide TFA] was tested, and the “selective activation of α7-5HT3 W77F over receptors with Q79G and L141F mutations” value ([4]; FIG. 5 dose response curves) was “selectively activated” and the EC50 ([4]; read-out: EC50-MP; α7 W77F, IPD 5HT3; value (s.e.m.)) was 4300 ± 500 nM.
Compound `CCCc1ccc(C(=O)N[C@@H]2CN3CCC2CC3)cc1` [Compound 165S, (S)-4-propyl-N-(quinuclidin-3-yl)benzamide TFA] has an EC50 [16] of 1900 nM, an EC50 [17, 21] of 5900 nM and an EC50 [17, 22] of 900 nM.
For `c1ccc2c(c1)CC1C(=NN2)C2CCN1CC2` (stereo not drawn) [Compound 212], the EC50 [1] was > 100000 nM, the EC50 [16] was > 100000 nM and the EC50 [2] was 750 nM.
For `O=C(N[C@H]1CN2CCC1CC2)c1ccc(Cl)cc1` [PNU-282987], the “efficacy with α7-5HT3 carrying Y115F” value [18] was “greatly reduced or eliminated”, the EC50 [1] was 60 nM and the EC50 ([19]; peak current, IPD 5HT3, read-out: EC50-Ipeak) was 800 nM. For the same compound, the EC50 ([19]; steady state current, IPD 5HT3, read-out: EC50-Iss) was 90 nM and the “efficacy with α7-5HT3 carrying Y210F” value [20] was “greatly reduced or eliminated”.
